According to patent publication US7932262B2 (Novartis AG, priority 2006, dated 2011):
Read-outs that look alike come from different tables or passages of the source.

Tests used:
[1] = molecular target: T1, PDK1 kinase (Homo sapiens, UniProt O15530); assay: PDK1 Kinase Alpha Screen Assay; format: biochemical; conditions: PDK1 Kinase Alpha Screen Assay; read-out: PDK1 IC50
T1 sequence (O15530 1-556): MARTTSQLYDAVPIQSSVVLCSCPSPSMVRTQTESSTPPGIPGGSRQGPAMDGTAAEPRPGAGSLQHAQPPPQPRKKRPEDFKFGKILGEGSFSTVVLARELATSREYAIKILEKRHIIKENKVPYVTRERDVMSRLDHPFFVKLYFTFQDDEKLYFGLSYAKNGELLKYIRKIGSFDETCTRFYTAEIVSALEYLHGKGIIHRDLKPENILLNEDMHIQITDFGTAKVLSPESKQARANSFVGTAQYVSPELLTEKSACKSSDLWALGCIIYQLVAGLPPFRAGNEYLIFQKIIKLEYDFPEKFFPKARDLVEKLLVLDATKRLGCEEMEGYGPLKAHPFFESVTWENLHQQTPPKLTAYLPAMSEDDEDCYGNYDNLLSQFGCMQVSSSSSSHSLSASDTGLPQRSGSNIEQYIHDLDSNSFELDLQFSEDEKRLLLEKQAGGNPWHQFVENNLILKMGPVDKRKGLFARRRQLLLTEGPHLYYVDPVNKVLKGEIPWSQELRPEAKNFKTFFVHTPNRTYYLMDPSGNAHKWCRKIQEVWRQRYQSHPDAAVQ
Summary of the method: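 Detection used AlphaScreen: streptavidin donor and protein A acceptor beads (25 μg/ml each) bridged by a phospho-(Ser/Thr) PKA substrate antibody binding phosphorylated peptide. Reaction: biotin-PDK1-4 peptide (50 nM), ATP (10 uM), PDK1 in pH 7.5 Tris/MgCl2/DTT buffer, 3-18 hours, EDTA-stopped.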

[2] = test system: A2780 cells; assay: Cell Proliferation Assay (Cell Titer Glo), A2780; format: cell-based; conditions: Homo sapiens, read-out: CPEC50 A2780
Summary of the method: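 Following a 3-day compound exposure (37° C., 5% CO2) of A2780 or PC3MM cells plated at 1000 per well, viability was measured by Cell Titer Glo luminescence in fresh medium, read 10 min after reagent addition.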

[3] = Cell Proliferation Assay, A2780
[4] = cell proliferation, A2780 cells

Structure (SMILES)	IC50 [1]	EC50 [2, 3]	EC50 [2, 4]
Cc1cc(S(N)(=O)=O)ccc1Nc1ncc2cccc(OC(C)C)c2n1 [Compound 562, 4-(8-isopropoxyquinazolin-2-ylamino)-3-methylbenzenesulfonamide]	10 to 25 µM	< 5 µM	
NC(=O)c1ccc(COc2cccc3cnc(Nc4ccc(S(N)(=O)=O)cc4)nc23)cc1 [Compound 628, 4-((2-(4-sulfamoylphenylamino)quinazolin-8-yloxy)methyl)benzamide]	< 5 µM	5 to 10 µM	
NS(=O)(=O)c1ccc(Nc2ncc3ccc(-c4cccnc4)c(OC4CCNCC4)c3n2)cc1 [Compound 853, 4-(8-(piperidin-4-yloxy)-7-(pyridin-3-yl)quinazolin-2-ylamino)benzenesulfonamide]	< 5 µM		< 5 µM
NC(=O)c1ccc(-c2ccc3cnc(Nc4ccc(S(N)(=O)=O)cc4)nc3c2OC2CCNCC2)cc1 [Compound 854, 4-(8-(piperidin-4-yloxy)-2-(4-sulfamoylphenylamino)quinazolin-7-yl)benzamide]	< 5 µM		5 to 10 µM
NS(=O)(=O)c1ccc(Nc2ncc3ccc(-c4ccncc4)c(OC4CCNCC4)c3n2)cc1 [Compound 855, 4-(8-(piperidin-4-yloxy)-7-(pyridin-4-yl)quinazolin-2-ylamino)benzenesulfonamide]	< 5 µM		5 to 10 µM
Nc1ncc(-c2ccc3cnc(Nc4ccc(S(N)(=O)=O)cc4)nc3c2OC2CCNCC2)cn1 [Compound 857, 4-(7-(2-aminopyrimidin-5-yl)-8-(piperidin-4-yloxy)quinazolin-2-ylamino)benzenesulfonamide]	< 5 µM		5 to 10 µM
NS(=O)(=O)c1ccc(Nc2ncc3ccc(-c4cn[nH]c4)c(OC4CCNCC4)c3n2)cc1 [Compound 859, 4-(8-(piperidin-4-yloxy)-7-(1H-pyrazol-4-yl)quinazolin-2-ylamino)benzenesulfonamide]	< 5 µM		< 5 µM
NS(=O)(=O)c1ccc(Nc2ncc3ccc(-c4ncco4)c(OC4CCNCC4)c3n2)cc1 [Compound 861, 4-(7-(oxazol-2-yl)-8-(piperidin-4-yloxy)quinazolin-2-ylamino)benzenesulfonamide]	< 5 µM		< 5 µM
NS(=O)(=O)c1ccc(Nc2ncc3ccc(-c4nccs4)c(OC4CCNCC4)c3n2)cc1 [Compound 862, 4-(8-(piperidin-4-yloxy)-7-(thiazol-2-yl)quinazolin-2-ylamino)benzenesulfonamide]	< 5 µM		< 5 µM
NS(=O)(=O)c1ccc(Nc2ncc3ccc(-c4ccccn4)c(OC4CCNCC4)c3n2)cc1 [Compound 863, 4-(8-(piperidin-4-yloxy)-7-(pyridin-2-yl)quinazolin-2-ylamino)benzenesulfonamide]	< 5 µM		< 5 µM
N#Cc1ccc2cnc(Nc3ccc(S(N)(=O)=O)cc3)nc2c1OC1CCNCC1 [Compound 864, 4-(7-cyano-8-(piperidin-4-yloxy)quinazolin-2-ylamino)benzenesulfonamide]	< 5 µM		< 5 µM
CN1CCN(Cc2cccc3cnc(Nc4ccc(S(N)(=O)=O)cc4)nc23)CC1 [Compound 871, 4-(8-((4-methylpiperazin-1-yl)methyl)quinazolin-2-ylamino)benzenesulfonamide]	< 5 µM		< 5 µM
NS(=O)(=O)c1ccc(Nc2ncc3cccc(CN4CCOCC4)c3n2)cc1 [Compound 872, 4-(8-(morpholinomethyl)quinazolin-2-ylamino)benzenesulfonamide]	< 5 µM		< 5 µM

The remaining lines, values ahead:

IC50 [1]	EC50 [2, 3]	EC50 [2, 4]	Structure (SMILES)
< 5 µM	< 5 µM		NC(=O)c1ccc2cnc(Nc3ccc(S(N)(=O)=O)cc3)nc2c1 [Compound 564, 2-(4-sulfamoylphenylamino)quinazoline-7-carboxamide]
5 to 10 µM	5 to 10 µM		NS(=O)(=O)c1ccc(Nc2ncc3cccc(C(=O)O)c3n2)cc1 [Compound 622, 2-(4-sulfamoylphenylamino)quinazoline-8-carboxylic acid]
< 5 µM	< 5 µM		CC(C)NC(=O)c1cccc2cnc(Nc3ccc(S(N)(=O)=O)cc3)nc12 [Compound 624, N-isopropyl-2-(4-sulfamoylphenylamino)quinazoline-8-carboxamide]
< 5 µM	< 5 µM		COc1ccc2cnc(Nc3ccc(S(N)(=O)=O)cc3)nc2c1 [Compound 629, 4-(7-methoxyquinazolin-2-ylamino)benzenesulfonamide]
< 5 µM	5 to 10 µM		CN(C)CCOc1ccc2cnc(Nc3ccc(S(N)(=O)=O)cc3)nc2c1 [Compound 630, 4-(7-(2-(dimethylamino)ethoxy)quinazolin-2-ylamino)benzenesulfonamide]
< 5 µM	< 5 µM		NS(=O)(=O)c1ccc(Nc2ncc3ccc(OCC4CCNCC4)cc3n2)cc1 [Compound 631, 4-(7-(piperidin-4-ylmethoxy)quinazolin-2-ylamino)benzenesulfonamide]
< 5 µM	< 5 µM		NS(=O)(=O)c1ccc(Nc2ncc3ccc(OCCC4CCNCC4)cc3n2)cc1 [Compound 632, 4-(7-(2-(piperidin-4-yl)ethoxy)quinazolin-2-ylamino)benzenesulfonamide]
< 5 µM		< 5 µM	CC(C)Cn1cc(-c2ccc3cnc(Nc4ccc(S(N)(=O)=O)cc4)nc3c2)cn1 [Compound 849, 4-(7-(1-isobutyl-1H-pyrazol-4-yl)quinazolin-2-ylamino)benzenesulfonamide]
< 5 µM		5 to 10 µM	NS(=O)(=O)c1ccc(Nc2ncc3ccc(-c4ccnc(NCCN5CCCC5)c4)cc3n2)cc1 [Compound 850, 4-(7-(2-(2-(pyrrolidin-1-yl)ethylamino)pyridin-4-yl)quinazolin-2-ylamino)benzenesulfonamide]
5 to 10 µM		< 5 µM	NS(=O)(=O)c1ccc(Nc2ncc3ccc(-c4ccnc(N5CCCC5)c4)cc3n2)cc1 [Compound 851, 4-(7-(2-(pyrrolidin-1-yl)pyridin-4-yl)quinazolin-2-ylamino)benzenesulfonamide]
< 5 µM		< 5 µM	NS(=O)(=O)c1ccc(Nc2ncc3ccc(-c4ccnc(N5CCOCC5)c4)cc3n2)cc1 [Compound 852, 4-(7-(2-morpholinopyridin-4-yl)quinazolin-2-ylamino)benzenesulfonamide]
< 5 µM		< 5 µM	Nc1ccc(-c2ccc3cnc(Nc4ccc(S(N)(=O)=O)cc4)nc3c2OC2CCNCC2)cn1 [Compound 856, 4-(7-(6-aminopyridin-3-yl)-8-(piperidin-4-yloxy)quinazolin-2-ylamino)benzenesulfonamide]
< 5 µM		< 5 µM	COc1cncc(-c2ccc3cnc(Nc4ccc(S(N)(=O)=O)cc4)nc3c2OC2CCNCC2)c1 [Compound 858, 4-(7-(5-methoxypyridin-3-yl)-8-(piperidin-4-yloxy)quinazolin-2-ylamino)benzenesulfonamide]
< 5 µM		< 5 µM	Cn1cc(-c2ccc3cnc(Nc4ccc(S(N)(=O)=O)cc4)nc3c2OC2CCNCC2)cn1 [Compound 860, 4-(7-(1-methyl-1H-pyrazol-4-yl)-8-(piperidin-4-yloxy)quinazolin-2-ylamino)benzenesulfonamide]
< 5 µM		< 5 µM	Cc1n[nH]c(C)c1-c1ccc2cnc(Nc3ccc(S(N)(=O)=O)cc3)nc2c1 [Compound 865, 4-(7-(3,5-dimethyl-1H-pyrazol-4-yl)quinazolin-2-ylamino)benzenesulfonamide]
< 5 µM		< 5 µM	NS(=O)(=O)c1ccc(Nc2ncc3ccc(-c4cnoc4)cc3n2)cc1 [Compound 866, 4-(7-(isoxazol-4-yl)quinazolin-2-ylamino)benzenesulfonamide]
< 5 µM		< 5 µM	Cc1noc(C)c1-c1ccc2cnc(Nc3ccc(S(N)(=O)=O)cc3)nc2c1 [Compound 867, 4-(7-(3,5-dimethylisoxazol-4-yl)quinazolin-2-ylamino)benzenesulfonamide]
< 5 µM		< 5 µM	O=S(=O)(c1ccc(Nc2ncc3ccc(-c4cn[nH]c4)cc3n2)cc1)N1CCOCC1 [Compound 868, N-(4-(morpholinosulfonyl)phenyl)-7-(1H-pyrazol-4-yl)quinazolin-2-amine]
< 5 µM		< 5 µM	CN1CCC(c2c(O)ccc3cnc(Nc4ccc(S(N)(=O)=O)cc4)nc23)CC1 [Compound 870, 4-(7-hydroxy-8-(1-methylpiperidin-4-yl)quinazolin-2-ylamino)benzenesulfonamide]
< 5 µM		< 5 µM	NS(=O)(=O)c1ccc(Nc2ncc3cccc(Nc4ccc(F)cc4)c3n2)cc1 [Compound 873, 4-(8-(4-fluorophenylamino)quinazolin-2-ylamino)benzenesulfonamide]
